According to patent US20240382495A1, “COMBINATIONS OF COPANLISIB WITH ANTI-PD-1 ANTIBODY” (BAYER PHARMA AKTIENGESELLSCHAFT, priority 2023, published 2024):
Where a name gives a salt, the structure may show the parent alone.

Experiments:
CT26 colorectal cancer = test: Anti-tumor efficacy in syngeneic CT26 colorectal cancer mouse model; format: in vivo; conditions: CT26 (KRASmut, non-MSIhigh) model, monotherapy
Method: (§1) Experimental Methods A20 diffuse large B cell lymphoma and CT26 colorectal cancer cells were maintained in vitro in cell cultural medium supplemented with serum (according to the instructions for each corresponding cell lines) at 37° C. in an atmosphere of 5% CO2 in air. The tumor cells were routinely subcultured twice weekly. The cells in an exponential growth phase were harvested and counted for tumor inoculation. To investigate anti-tumor efficacy and mechanisms of action in vivo, each mouse was inoculated subcutaneously at the right lower flank region with tumor cells (1×10^5-2×10^6 depending on the cell lines) in 0.1 ml of PBS with or without metrigel for tumor development. Before commencement of treatment, all animals were weighed and the tumor volumes were measured using a caliper. […]
(§2) Tumor volumes were measured 2-3 times weekly in two dimensions using a caliper, and the volume was expressed in mm^3 using the formula: V=0.5 a x b2 where a and b are the long and short diameters of the tumor, respectively. Tumor weight was measured at study termination. […]
Therefore, the anti-tumor activity of Compound A and Compound B was assessed in the mouse syngeneic CT26 (KRASmut, non-MSIhig^h) colorectal cancer xenograft model as single agent and in combination. […]

[1] = system: A20 diffuse large B cell lymphoma; test: Anti-tumor efficacy in DLBCL syngeneic A20 mouse model; format: in vivo; conditions: monotherapy; Cpd A 14 mg/kg, Cpd B 200 μg/mouse, intravenously; vs vehicle control group
Method: as §1, §2
The anti-tumor activity of Compound A and Compound B was assessed firstly in an immune-checkpoint blocker resistant DLBCL syngeneic A20 xenograft mouse model as single agent and in combination. […] Body weights and tumor size were measured three times per week. […] The tolerability was assessed by body weight change. […]

[2] = system: regulatory T cells (Treg); test: Analysis of Treg and CD8+ T cells in tumor, spleen and thymus of A20 model; format: in vivo, mouse
Method: Sampling procedures: organ and tumor tissues were quickly removed and weighted 3h post the final dose for FACS, IHC (FFPE), and RNA/pretein expression analysis.
The anti-tumor activity of Compound A and Compound B was assessed firstly in an immune-checkpoint blocker resistant DLBCL syngeneic A20 xenograft mouse model as single agent and in combination. A20 cells were inoculated subcutaneously at the right flank of female BALB/c mice for tumor development. The treatment was started when the average tumor size reached about 116 mm^3. Mice were allocated randomly into experimental groups according to their tumor sizes and being treated from day 12 after tumor cell inoculation. Cpd A was dosed at 14 mg/kg and Cpd B at 200 μg/mouse intravenously with the schedule indicated in FIG. 1 A. Treatment groups were: control antibody (ctrl Ab), vehicle control (vehicle), compound A monotherapy (Cpd. A), Cpd. B monotherapy, 3 combination groups with different dosing schedules. Body weights and tumor size were measured three times per week. Tumor growth curve (FIG. 1B), tumor weight at the end of treatment (FIG. 1C) and tumor response (FIG. 1D) were used as anti-tumor activity endpoints. The tolerability was assessed by body weight change. […]

## COc1c(OCCCN2CCOCC2)ccc2c1N=C(NC(=O)c1cnc(N)nc1)N1CCN=C21 [Cpd A, 2-amino-N-[7-methoxy-8-(3-morpholin-4-ylpropoxy)-2,3-dihydroimid-azo[1,2-c]quinazolin-5-yl]pyrimidine-5-carboxamide dihydrochloride]
CT26 colorectal cancer
  TGI: 71%
[1]
  relative tumor growth inhibition (TGI %): 78%
[2]; A20 model, thymus and spleen
  effect on Treg in thymus and spleen: minimal or no effects
[2]; A20 tumors, Treg among CD4+ T cells
  effect on Treg population in tumors: specifically reduce the Treg population in tumors
